Experiment in all cases: Protease selectivity panel
Common to all, as to assay type: biochemical
Common to all, as to conditions: 100 μM compound, n = 2

One experiment deals with T1, DPP4 (Homo sapiens, UniProt P27487).
T1 construct: purchased ENZO
Here is the method: (§1) Test compounds were dissolved in 100% DMSO to make 10 mM stock. Final compound concentration in assay is […]. Compounds were tested in duplicate wells at single concentration and the final concentration of DMSO in all assays was kept at 1%. Five reference compounds, AEBSF, Carfilzomib, Granzyme B Inhibitor II, Dec-RVKR-CMK, and Teneligliptin hydrobromide, were tested in an identical manner with 8 concentration points at 5× dilutions.

Another experiment addresses T2, DPP8 (Homo sapiens, UniProt Q6V1X1).
T2 construct: purchased ENZO
Here is the method: as §1

The target of a further experiment is T3, Factor VII (Homo sapiens, UniProt P08709).
T3 construct: purchased R&D Systems
T3 sequence (P08709 213-466 limits assumed): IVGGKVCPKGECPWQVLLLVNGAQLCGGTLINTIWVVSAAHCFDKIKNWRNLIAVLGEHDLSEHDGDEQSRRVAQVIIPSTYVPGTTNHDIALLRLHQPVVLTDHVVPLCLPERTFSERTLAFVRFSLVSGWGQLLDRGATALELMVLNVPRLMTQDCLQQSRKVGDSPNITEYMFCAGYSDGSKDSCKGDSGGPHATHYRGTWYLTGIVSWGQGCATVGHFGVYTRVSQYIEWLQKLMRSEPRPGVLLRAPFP
T3 sequence (P08709 61-212 partner limits assumed): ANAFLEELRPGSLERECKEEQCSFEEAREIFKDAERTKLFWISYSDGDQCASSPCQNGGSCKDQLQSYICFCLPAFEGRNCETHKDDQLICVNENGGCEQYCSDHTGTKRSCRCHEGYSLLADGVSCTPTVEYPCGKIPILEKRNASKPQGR
T3 sequence (P13726 33-251 partner limits assumed): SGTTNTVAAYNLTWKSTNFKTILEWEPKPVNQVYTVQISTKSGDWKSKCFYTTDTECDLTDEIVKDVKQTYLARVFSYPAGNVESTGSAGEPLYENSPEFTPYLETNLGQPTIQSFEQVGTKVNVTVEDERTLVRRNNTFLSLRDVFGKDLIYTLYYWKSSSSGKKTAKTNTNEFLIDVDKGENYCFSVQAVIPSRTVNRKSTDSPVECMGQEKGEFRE
Here is the method:
as §1

In another experiment the target is T4, Factor-Xa (Homo sapiens, UniProt P00742).
T4 construct: Factor Xa; Calbiochem; B76791; purchased Calbiochem
T4 sequence (P00742 235-488 limits assumed): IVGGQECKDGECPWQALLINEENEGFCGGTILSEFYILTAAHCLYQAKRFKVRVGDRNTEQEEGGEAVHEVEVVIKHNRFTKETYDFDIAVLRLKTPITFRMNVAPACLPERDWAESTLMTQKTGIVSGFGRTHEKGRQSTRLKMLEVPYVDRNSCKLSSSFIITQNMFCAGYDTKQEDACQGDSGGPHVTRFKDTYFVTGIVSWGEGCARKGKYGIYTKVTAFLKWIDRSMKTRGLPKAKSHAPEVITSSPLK
T4 sequence (P00742 41-179 partner limits assumed): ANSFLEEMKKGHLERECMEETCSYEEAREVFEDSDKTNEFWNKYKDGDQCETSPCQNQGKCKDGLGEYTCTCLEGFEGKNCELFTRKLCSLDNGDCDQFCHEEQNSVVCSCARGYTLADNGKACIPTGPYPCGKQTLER
Here is the method: as §1

Another experiment deals with T5, Kallikrein13 (Homo sapiens, UniProt Q9UKR3).
T5 construct: purchased R&D Systems
T5 sequence (Q9UKR3 26-277 limits assumed): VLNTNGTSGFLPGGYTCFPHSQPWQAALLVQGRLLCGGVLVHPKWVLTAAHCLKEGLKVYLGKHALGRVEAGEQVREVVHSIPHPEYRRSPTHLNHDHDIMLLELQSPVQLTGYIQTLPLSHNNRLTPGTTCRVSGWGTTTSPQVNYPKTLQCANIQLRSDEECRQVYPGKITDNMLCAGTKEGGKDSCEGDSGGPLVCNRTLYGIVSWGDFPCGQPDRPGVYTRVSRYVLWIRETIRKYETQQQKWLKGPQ
As for the experimental part:
as §1

The target in a further experiment is T6, Matriptase (Homo sapiens, UniProt Q9Y5Y6).
T6 construct: purchased R&D Systems
T6 sequence (Q9Y5Y6 1-855): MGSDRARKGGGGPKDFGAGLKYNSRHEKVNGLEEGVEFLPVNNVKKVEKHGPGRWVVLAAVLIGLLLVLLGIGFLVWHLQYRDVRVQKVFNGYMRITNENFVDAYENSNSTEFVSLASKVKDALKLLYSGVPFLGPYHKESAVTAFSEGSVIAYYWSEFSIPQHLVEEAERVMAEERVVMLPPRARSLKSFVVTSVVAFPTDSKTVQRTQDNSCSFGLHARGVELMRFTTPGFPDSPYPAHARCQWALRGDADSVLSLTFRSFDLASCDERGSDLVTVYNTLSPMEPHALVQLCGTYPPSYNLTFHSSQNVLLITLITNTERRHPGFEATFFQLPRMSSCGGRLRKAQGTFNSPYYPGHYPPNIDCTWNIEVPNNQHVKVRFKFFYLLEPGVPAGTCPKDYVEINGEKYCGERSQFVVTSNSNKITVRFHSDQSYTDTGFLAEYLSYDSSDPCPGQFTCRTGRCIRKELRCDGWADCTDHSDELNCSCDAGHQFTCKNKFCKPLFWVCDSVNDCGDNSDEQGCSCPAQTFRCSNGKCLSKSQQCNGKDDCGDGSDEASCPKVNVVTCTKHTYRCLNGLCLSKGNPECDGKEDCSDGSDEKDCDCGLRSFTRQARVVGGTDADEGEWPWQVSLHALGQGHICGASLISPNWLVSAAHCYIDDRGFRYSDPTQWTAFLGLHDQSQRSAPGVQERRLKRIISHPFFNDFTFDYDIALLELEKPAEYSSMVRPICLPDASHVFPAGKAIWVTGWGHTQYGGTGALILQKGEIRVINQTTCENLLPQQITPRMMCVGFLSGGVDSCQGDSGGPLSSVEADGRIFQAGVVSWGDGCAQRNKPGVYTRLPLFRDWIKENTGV
As for the experimental part: as §1

In a further experiment the target is T7, PSMB5 (Homo sapiens, UniProt P28074).
T7 construct: purchased BOSTON-BIOCHEM
As for the experimental part: as §1

In a further experiment the target is T8, PSMB6 (Homo sapiens, UniProt P28072).
T8 construct: purchased BOSTON-BIOCHEM
Here is the method: as §1

A further experiment addresses T9, PSMB8 (Homo sapiens, UniProt P28062).
T9 construct: purchased BOSTON-BIOCHEM
As for the experimental part: as §1

For a further experiment, the target named is T10, Plasma-Kallikrein (Homo sapiens, UniProt P03952).
T10 construct: purchased R&D Systems
T10 sequence (P03952 20-638): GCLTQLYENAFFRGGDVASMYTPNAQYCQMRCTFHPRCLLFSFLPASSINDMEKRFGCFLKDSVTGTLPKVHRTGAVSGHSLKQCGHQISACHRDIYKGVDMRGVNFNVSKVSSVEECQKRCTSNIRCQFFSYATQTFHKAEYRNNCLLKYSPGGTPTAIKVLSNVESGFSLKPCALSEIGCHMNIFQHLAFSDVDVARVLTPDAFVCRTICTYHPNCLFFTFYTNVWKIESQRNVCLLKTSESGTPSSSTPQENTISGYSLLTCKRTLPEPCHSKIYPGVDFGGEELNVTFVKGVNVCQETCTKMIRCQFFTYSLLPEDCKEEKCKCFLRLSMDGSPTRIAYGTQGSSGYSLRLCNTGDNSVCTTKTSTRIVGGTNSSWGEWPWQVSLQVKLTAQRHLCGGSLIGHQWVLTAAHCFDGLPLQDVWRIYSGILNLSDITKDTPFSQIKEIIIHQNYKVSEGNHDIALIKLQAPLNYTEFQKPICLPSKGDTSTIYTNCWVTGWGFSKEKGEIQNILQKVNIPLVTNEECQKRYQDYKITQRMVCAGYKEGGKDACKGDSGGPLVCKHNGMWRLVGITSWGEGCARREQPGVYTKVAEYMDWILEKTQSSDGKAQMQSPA
As for the experimental part:
as §1

The target of the next experiment is T11, Plasmin (Homo sapiens, UniProt P00747).
T11 construct: purchased R&D Systems
T11 sequence (P00747 581-810 limits assumed): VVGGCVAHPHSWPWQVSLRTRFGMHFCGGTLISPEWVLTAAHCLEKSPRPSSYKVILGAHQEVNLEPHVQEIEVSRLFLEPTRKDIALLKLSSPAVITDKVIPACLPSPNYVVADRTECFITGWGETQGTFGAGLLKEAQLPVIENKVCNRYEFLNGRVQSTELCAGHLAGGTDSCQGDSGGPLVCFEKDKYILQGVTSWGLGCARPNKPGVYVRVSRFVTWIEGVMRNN
T11 sequence (P00747 97-580 partner limits assumed): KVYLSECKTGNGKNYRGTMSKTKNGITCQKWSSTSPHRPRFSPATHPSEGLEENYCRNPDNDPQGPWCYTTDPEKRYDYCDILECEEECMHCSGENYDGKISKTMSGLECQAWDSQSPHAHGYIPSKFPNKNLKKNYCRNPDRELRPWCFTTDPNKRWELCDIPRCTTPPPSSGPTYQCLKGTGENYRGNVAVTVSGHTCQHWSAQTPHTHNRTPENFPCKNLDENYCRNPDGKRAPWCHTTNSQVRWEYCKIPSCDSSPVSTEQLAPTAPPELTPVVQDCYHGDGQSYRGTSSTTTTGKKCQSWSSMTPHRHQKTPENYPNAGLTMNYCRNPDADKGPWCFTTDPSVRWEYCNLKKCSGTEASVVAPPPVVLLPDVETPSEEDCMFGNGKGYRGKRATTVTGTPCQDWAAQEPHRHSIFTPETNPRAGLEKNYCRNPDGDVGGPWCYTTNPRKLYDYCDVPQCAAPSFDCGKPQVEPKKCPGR
Here is the method: as §1

The next experiment deals with T12, Prolyl Oligopeptidase (Homo sapiens, UniProt P48147).
T12 construct: purchased R&D Systems
T12 sequence (P48147 1-710): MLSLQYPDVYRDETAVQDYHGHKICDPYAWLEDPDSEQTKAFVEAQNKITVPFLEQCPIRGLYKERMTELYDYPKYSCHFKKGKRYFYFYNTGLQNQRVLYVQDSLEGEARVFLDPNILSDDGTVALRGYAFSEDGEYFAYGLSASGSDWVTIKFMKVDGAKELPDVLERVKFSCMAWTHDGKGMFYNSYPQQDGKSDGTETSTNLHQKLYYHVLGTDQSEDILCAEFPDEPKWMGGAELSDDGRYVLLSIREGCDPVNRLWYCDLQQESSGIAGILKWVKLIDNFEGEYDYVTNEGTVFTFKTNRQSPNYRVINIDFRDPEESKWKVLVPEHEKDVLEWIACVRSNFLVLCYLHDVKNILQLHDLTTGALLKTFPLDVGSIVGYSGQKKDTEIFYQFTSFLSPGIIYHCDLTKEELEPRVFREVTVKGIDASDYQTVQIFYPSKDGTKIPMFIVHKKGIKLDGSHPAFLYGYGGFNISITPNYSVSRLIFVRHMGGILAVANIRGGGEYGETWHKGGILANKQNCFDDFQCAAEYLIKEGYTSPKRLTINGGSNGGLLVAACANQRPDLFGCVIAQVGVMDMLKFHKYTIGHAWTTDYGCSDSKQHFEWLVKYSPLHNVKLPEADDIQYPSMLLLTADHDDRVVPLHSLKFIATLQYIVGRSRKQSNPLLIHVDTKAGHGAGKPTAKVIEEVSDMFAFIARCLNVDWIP
Here is the method:
as §1

The target of the next experiment is T13, tPA (Homo sapiens, UniProt P00750).
T13 construct: purchased R&D Systems
T13 sequence (P00750 36-562): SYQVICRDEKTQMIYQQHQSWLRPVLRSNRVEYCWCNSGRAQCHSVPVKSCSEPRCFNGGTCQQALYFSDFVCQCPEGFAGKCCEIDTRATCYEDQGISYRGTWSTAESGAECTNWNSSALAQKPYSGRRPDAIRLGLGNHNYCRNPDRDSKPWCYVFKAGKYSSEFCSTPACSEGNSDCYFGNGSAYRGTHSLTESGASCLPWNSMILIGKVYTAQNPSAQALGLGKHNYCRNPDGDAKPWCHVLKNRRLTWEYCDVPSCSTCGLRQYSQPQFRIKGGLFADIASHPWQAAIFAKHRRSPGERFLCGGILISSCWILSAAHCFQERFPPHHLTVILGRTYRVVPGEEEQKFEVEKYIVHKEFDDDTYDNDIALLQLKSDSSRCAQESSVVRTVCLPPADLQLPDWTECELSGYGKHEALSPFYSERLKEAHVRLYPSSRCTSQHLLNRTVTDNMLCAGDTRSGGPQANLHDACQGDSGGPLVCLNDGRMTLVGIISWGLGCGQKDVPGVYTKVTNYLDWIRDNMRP
As for the experimental part:
as §1

For a further experiment, the target named is T14, uPA (Homo sapiens, UniProt P00749).
T14 construct: purchased R&D Systems
Here is the method: as §1

The source of these data is patent US20190327974A1, “SYNERGISTS FOR IMPROVED PESTICIDES” (priority 2017, published 2019).

Molecules are shown by their SMILES.

T1 sequence (P27487 whole entry): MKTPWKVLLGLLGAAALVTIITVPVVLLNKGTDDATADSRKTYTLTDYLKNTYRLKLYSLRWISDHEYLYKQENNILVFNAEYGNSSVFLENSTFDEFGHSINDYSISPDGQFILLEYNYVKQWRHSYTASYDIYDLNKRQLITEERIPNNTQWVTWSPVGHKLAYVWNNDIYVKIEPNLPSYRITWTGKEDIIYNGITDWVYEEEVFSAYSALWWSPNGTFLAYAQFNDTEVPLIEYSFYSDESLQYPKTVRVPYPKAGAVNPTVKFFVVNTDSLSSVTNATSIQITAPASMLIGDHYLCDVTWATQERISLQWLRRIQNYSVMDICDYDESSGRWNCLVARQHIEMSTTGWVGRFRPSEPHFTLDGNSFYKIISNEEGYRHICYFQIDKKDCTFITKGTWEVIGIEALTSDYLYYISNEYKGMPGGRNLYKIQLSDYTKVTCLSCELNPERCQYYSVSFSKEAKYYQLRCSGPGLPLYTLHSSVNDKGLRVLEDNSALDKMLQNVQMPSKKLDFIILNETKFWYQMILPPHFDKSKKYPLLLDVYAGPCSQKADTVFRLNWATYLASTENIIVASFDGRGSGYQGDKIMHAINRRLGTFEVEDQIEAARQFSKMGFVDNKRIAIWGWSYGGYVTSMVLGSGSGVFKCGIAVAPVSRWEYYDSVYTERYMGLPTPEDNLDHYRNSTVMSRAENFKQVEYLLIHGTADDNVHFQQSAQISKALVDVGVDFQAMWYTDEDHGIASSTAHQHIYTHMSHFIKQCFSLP
T2 sequence (Q6V1X1 whole entry): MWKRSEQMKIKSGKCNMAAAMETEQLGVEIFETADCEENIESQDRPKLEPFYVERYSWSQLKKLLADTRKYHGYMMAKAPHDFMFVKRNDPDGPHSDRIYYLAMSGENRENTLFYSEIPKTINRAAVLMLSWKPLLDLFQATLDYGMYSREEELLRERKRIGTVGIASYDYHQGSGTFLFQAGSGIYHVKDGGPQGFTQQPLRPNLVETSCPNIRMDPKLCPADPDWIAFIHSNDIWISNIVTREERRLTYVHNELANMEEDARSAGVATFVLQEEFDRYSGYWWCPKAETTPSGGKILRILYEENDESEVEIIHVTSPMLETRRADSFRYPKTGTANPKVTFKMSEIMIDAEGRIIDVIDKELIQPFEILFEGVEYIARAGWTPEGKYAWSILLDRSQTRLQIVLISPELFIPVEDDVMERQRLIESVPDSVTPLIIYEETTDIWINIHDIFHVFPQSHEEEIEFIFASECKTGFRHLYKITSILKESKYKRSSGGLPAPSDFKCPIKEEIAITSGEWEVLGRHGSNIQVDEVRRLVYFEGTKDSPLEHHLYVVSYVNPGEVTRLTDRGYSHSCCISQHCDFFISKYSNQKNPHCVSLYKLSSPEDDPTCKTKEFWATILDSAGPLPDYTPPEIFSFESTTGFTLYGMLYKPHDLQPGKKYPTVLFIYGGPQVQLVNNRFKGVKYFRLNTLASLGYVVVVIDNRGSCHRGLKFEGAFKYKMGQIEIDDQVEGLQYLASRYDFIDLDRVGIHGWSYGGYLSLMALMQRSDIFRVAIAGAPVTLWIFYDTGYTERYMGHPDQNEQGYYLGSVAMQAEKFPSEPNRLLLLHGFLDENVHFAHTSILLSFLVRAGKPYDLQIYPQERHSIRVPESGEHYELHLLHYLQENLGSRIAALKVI

The inhibition is the relative decrease from the control value, in per cent. Consider `OB(O)c1cc(Br)cc(Oc2ccccc2)c1` [Compound 3.10, 3-Bromo-5-phenoxyfenylboronic acid], for which the inhibition at 100 µM at DPP4 was -3%; against DPP8 it was 37%; at Factor VII, 53%; on Factor-Xa, 35%; on Kallikrein13, 0%; against Matriptase, 4%. Moreover, the inhibition at 100 µM at PSMB5 was 2%; on PSMB6, 27%; on PSMB8 it was 49%; on Plasma-Kallikrein, 64%; against Plasmin, -2%; at Prolyl Oligopeptidase it was 30%. Besides, the inhibition at 100 µM was found to be 19% against tPA and 32% on uPA.

Consider `OB(O)c1cc(Br)cc(OCc2ccccc2)c1` [Compound 3.9], for which the inhibition at 100 µM at DPP4 is 2%; against DPP8 it was 53%; against Factor VII it was 26%; against Factor-Xa, 26%; against Kallikrein13, -1%; against Matriptase it was 5%. Besides, the inhibition at 100 µM against PSMB5 is 34%; at PSMB6 it was 54%; against PSMB8, 52%; against Plasma-Kallikrein it was 41%; against Plasmin it was 16%; at Prolyl Oligopeptidase it was 48%. Moreover, the inhibition at 100 µM against tPA and at uPA was 40% each time.

Consider `OB(O)c1cc(Br)cc(N2CCCC2)c1` [Compound 3], for which the inhibition at 100 µM on DPP4 was 6%; at DPP8 it was 42%; against Factor VII it was 15%; against Factor-Xa, 53%; on Kallikrein13 it was 3%; against Matriptase, -1%. For the same compound, the inhibition at 100 µM at PSMB5 was 3%; on PSMB6, 16%; against PSMB8, 19%; on Plasma-Kallikrein, 6%; at Plasmin it was 13%; against Prolyl Oligopeptidase it was 61%. Also, the inhibition at 100 µM on tPA is 26%; on uPA, 67%.
